Assay results from patent publication US11534441B2, “MAP4K1 inhibitors” (Blueprint Medicines Corporation, priority 2020, dated 2022).

Tests used:
MAP4K1 (HPK1) = MAP4K1 (HPK1) (Homo sapiens (Human), UniProt Q92918); assay: MAP4K1 (HPK1) biochemical enzymatic activity, electrophoretic mobility shift (EZReader 2), ATP at APPKM (26 μM)
Procedure, shortened: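 Enzyme at 0.1-15 nM was incubated with 1.5 μM fluorescent peptide and ATP at the apparent Km (26 μM) in HEPES pH 7.5, MgCl2, DTT and Brij 35. The reaction ran at 25° C for 60-180 min with a 10-point, 4-fold compound series (1% DMSO) and was stopped with EDTA. Substrate and product peptides were resolved by microfluidic mobility shift, and their peak ratio gave activity.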

expanded CD3+ T cells = assay: T cell enhancement of cytokines: IL2 measurement (HTRF) in expanded CD3+ T cells stimulated with anti-CD3/anti-CD28; type: cell-based, human; conditions: IL-2 measurement
Procedure, shortened: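 Healthy-donor T cells (95-98% CD3+) expanded 10-14 days with IL2 and CD3/CD28 beads, then cryopreserved. 100K cells/well in X-VIVO 10 serum-free medium were stimulated with plate-bound anti-CD3 plus soluble anti-CD28 with compound at various concentrations for 24 h. Secreted IL2 measured by HTRF after 24 h antibody incubation.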

[1] = Homo sapiens, T-cell, class designation
[2] = Homo sapiens, T-cell, numeric value

Chain of MAP4K1 (HPK1) (Q92918 whole entry): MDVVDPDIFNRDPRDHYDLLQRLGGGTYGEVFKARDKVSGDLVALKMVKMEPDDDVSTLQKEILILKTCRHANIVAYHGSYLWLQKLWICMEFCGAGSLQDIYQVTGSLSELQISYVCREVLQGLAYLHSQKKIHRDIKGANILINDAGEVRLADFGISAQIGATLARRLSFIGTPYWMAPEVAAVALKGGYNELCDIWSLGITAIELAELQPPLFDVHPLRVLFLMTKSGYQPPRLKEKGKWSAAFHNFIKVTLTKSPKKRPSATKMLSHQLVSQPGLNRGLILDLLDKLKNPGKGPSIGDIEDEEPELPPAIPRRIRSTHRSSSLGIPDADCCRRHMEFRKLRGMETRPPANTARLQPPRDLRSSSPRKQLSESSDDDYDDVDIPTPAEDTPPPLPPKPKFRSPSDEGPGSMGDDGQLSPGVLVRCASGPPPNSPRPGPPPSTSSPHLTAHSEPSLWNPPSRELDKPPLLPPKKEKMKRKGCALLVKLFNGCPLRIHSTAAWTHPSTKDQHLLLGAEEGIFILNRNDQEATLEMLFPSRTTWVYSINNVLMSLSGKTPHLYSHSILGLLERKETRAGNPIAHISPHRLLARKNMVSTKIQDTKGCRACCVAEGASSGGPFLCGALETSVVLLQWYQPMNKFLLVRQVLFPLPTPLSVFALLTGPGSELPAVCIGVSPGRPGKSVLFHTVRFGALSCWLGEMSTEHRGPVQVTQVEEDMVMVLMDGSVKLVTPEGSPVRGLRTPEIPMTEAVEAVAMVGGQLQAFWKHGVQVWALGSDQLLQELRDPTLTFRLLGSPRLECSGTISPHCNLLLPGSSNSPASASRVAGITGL

Row | Structure (SMILES) | IC50 (MAP4K1 (HPK1); class designation) [nM] | IC50 (MAP4K1 (HPK1); numeric value) [nM] | EC50 (expanded CD3+ T cells; class designation) [nM] | EC50 (expanded CD3+ T cells; numeric value) [nM] | EC50 (expanded CD3+ T cells; [1]) [nM] | EC50 (expanded CD3+ T cells; [2]) [nM]
1 | C[C@@H]1OC(=O)c2ccc(Nc3cc4c([C@](C)(N)C5CCC5)cnc(OC5CC5)c4cn3)nc2[C@H]1C [Compound 170] | < 0.3 | 0.07 | < 35 | 6.8 | – | –
2 | CC[C@]1(C)OC(=O)c2ccc(Nc3cc4c(C(C)(C)N)cnc(OCC(F)(F)F)c4cn3)nc21 [Compound 172] | 1.1 to 10 | 4.47 | > 55 | 74.8 | – | –
3 | CC[C@@]1(C)OC(=O)c2ccc(Nc3cc4c(C(C)(C)N)cnc(OCC(F)(F)F)c4cn3)nc21 [Compound 174] | 1.1 to 10 | 2.9 | < 35 | 28.2 | – | –
4 | CC(C)(N)c1cnc(OCC(F)(F)F)c2cnc(Nc3ccnc([C@@H]4CCC[C@@H](O)C4)n3)cc12 [Compound 176] | 0.31 to 1 | 0.8 | < 35 | 20.9 | – | –
5 | C[C@@H]1OC(=O)c2ccc(Nc3cc4c(C(C)(C)N)cnc(OC5CC(F)(F)C5)c4cn3)nc2[C@H]1C [Compound 178] | < 0.3 | 0.29 | – | – | > 55 | 58.7
6 | CC1(C)Cc2nc(Nc3cc4c(C(C)(C)NC5COC5)cnc(OC5CC5)c4cn3)ccc2C(=O)O1 [Compound 183] | > 10 | 26.4 | – | – | < 35 | 3.1
7 | COC[C@@](C)(N)c1cnc(OC)c2cnc(Nc3ccc4c(n3)[C@@H](C)[C@H](C)OC4=O)cc12 [Compound 188] | < 0.3 | 0.09 | < 35 | 6.8 | – | –
8 | CC[C@](C)(N)c1cnc(OC2CC2)c2cnc(Nc3ccc4c(n3)C3(CC3)C(C)(C)OC4=O)cc12 [Compound 196] | < 0.3 | 0.1 | < 35 | 19 | – | –
9 | COC[C@@H](N)c1cnc(OC)c2cnc(Nc3ccc4c(n3)[C@@H](C)C(C)(C)OC4=O)cc12 [Compound 208] | 0.31 to 1 | 0.7 | > 55 | 96 | – | –

Further lines, results first:

Row | IC50 (MAP4K1 (HPK1); class designation) [nM] | IC50 (MAP4K1 (HPK1); numeric value) [nM] | EC50 (expanded CD3+ T cells; class designation) [nM] | EC50 (expanded CD3+ T cells; numeric value) [nM] | EC50 (expanded CD3+ T cells; [1]) [nM] | EC50 (expanded CD3+ T cells; [2]) [nM] | Structure (SMILES)
10 | < 0.3 | 0.16 | 45.1 to 55 | 45.8 | – | – | COC[C@@](C)(N)c1cnc(OC2CC2)c2cnc(Nc3ccc4c(n3)[C@@H](C)C(C)(C)OC4=O)cc12 [Compound 189]
11 | < 0.3 | 0.22 | < 35 | 29.8 | – | – | CC[C@@H](N)c1cnc(OC)c2cnc(Nc3ccc4c(n3)[C@@H](C)C(C)(C)OC4=O)cc12 [Compound 204]
12 | 0.31 to 1 | 0.35 | – | – | > 55 | 113 | COC[C@@](C)(N)c1cnc(C)c2cnc(Nc3ccc4c(n3)[C@@H](C)[C@H](C)OC4=O)cc12 [Compound 205]
13 | < 0.3 | 0.23 | > 55 | 177 | – | – | CC[C@@H](N)c1cnc(C)c2cnc(Nc3ccc4c(n3)[C@@H](C)C(C)(C)OC4=O)cc12 [Compound 210]
